Test results published in paper PMC9889419 (Pharmacological Reports, 2022).
Where “and” joins values, the source holds several entries; their conditions need not be identical. Equal entries are not always repeated. Where two headings read alike, the source gives them in different places. Marks after values point to notes of the source that are not given here.

What was measured:
[1] = tested on: rats; assay: Rotarod / TOX (neurotoxicity); settings: rats, ip
Method: (§3) The assays were carried out within the Epilepsy Therapy Screening Program (ETSP, previously known as the Anticonvulsant Screening Program, ASP), Epilepsy Branch, National Institute of Neurological and Communicative Disorders and Stroke, National Institutes of Health in Rockville, MD, USA [23].
(§4) The obtained compounds were screened for antiseizure activity and neurotoxicity in vivo within the Epilepsy Therapy Screening Program (ETSP, previously known as the Anticonvulsant Screening Program, ASP), Epilepsy Branch, National Institute of Neurological and Communicative Disorders and Stroke, National Institutes of Health in Rockville, MD, USA [23].

[2] = tested on: mice; assay: Corneal kindling; format: in vivo; settings: ip, […]
[3] = tested on: rats; format: in vivo; settings: ip
[4] = tested on: mice; assay: Rotarod test (neurotoxicity); format: in vivo; settings: mice;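 also: in vivo neurotoxicity screen run within the NIH Epilepsy Therapy Screening Program (ETSP, formerly Anticonvulsant Screening Program)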
Method: as §3, §4

[5] = tested on: rats; assay: Maximal electroshock seizure (MES) test; format: in vivo; settings: ip
[6] = tested on: rats; assay: SCMET (subcutaneous Metrazol) test; format: in vivo; settings: rats, ip, 0.50 h
[7] = tested on: rats; format: in vivo; settings: ip; remark: listed apart in the source
[8] = tested on: mice; settings: mouse, in vivo
Method: They were also evaluated in the iv pentylenetetrazole (PTZ) test.
Data are expressed as the mean PTZ dose ± SEM for n = 10 that induced clonus or twitch in mice exposed to a particular dose of the test compound

[9] = tested on: organotypic hippocampal slice cultures; assay: Neuroprotection primary screen, excitotoxin NMDA; format: cell-based; settings: NMDA 10 µM; 10 and 100 µM compound
Text: Gompound 1 : ADD Number: ItSot+ Batct: lE- Date Started:
Compound 2 : ADD Number: Froso Batct: le Date Completed i l|26-M ar -20 1 O […]
Excitotoxin: lNmoa lnsult Duration: la Uouo Solvent:
Primary Screen Results: ffi […]
Al lruuoa rolrr,| A2lr'rrr,tOa r Olrrr,t * --.- A3 lr'rnroa r oprvr + lsaoot+ t oplrl+aesogo iopM
BZ lr.rrr,ron ropr,t , -_-_-- 83 lluoa topt',r * jffi 1 4 t oopM.€sroso 1 oolrM la+eota tooptu*aasoeo roffi […]
The 'Primary screen Experiment" is a qualitative assessment of the ability of a compound to prevent excrtotoxic cell death. organotypic hippocampal slice cultures are treated *ltn r.i-."iivr-o-"spartate (NMDA) or kainic acad (KA) to induce neuronal cell death' Propidium iodide (Pl), a membrane-imper.eant cornpouna, is included in all wells of the culture plate.
Dying cells have compromised *]lT^"Toj*::, ttr. er rnJy oin "" into the cell, intercatate with DNA and fluoresce. Thus, the intensity of the Pl fluorescence is proportional to the amount of cell death in lhe individual itices. ttippocampat slice cullures are treated with the excitotoxin alone, or *i er. inoi"ui"o above, with the excitotoxin and either one -qf]bar-a Investigalional compounds at the concentrations indicated. lf neuroprotectron occurs as a consequence of the added […]
(§1) been treated with the excitotoxin alone.
(§2) (1 picture or pasted object on this page, not shown here)

[10] = tested on: mice; assay: Formalin test (ETSP, area under the curve); format: in vivo; settings: 20.0 mg/kg, ip
[11] = tested on: mice; assay: 6 Hz test; format: in vivo; settings: mice
Method: The 6 Hz model test was carried out according to the protocol originally described by Brown et al. [54] and more recently by Barton et al. [55] and Kamiński et al. [47] and is a model of pharmacoresistant epilepsy [56].

[12] = tested on: slices; assay: Propidium iodide uptake in slices; format: cell-based; settings: 100.00 uM
Text: Anticonvulsant Screeninq Proqram
Solvent Code: DMSO Solvent Prep:
Add Compound Conc,(uM) # of slices % ofTotal Propidium lodide Uptake(mean +,/- S.E.M)

[13] = tested on: murine astrocytes; assay: Crystal violet (CV) assay; format: cell-based
Method: CV assay. Cells were seeded at a density of 1 × 10^4 cells per well in 96-well plates.

[14] = tested on: mice; assay: Formalin test (first screening); format: in vivo; settings: 30.0 mg/kg, ip
Method: Formalin test. The first screening in doses 15 and 30 mg/kg was performed at the Jagiellonian University-Medical College. […] After 30 min, animals were injected with 20 μL of a 0.5% formalin solution into the plantar surface of the hind paw. The total time spent by animal licking or biting the injected paw was assessed for the following 40 min.

[15] = tested on: mice; settings: mice
Method: as §3, §4

[16] = tested on: guinea pigs; assay: Corneal anesthesia; format: in vivo
Method: A. Corneal anesthesia. […] The corneal reflex was examined by irritation of right eye conjunctiva (studied eye) and a left eye conjunctiva (control eye) by horsehair. The strength of local anesthetic activity was determined from the moment of solution instillation to the moment of reflex return. The presence or lack of corneal reflex were assessed. The eye conjunctiva irritation was done 6 times (every 5 s) with the interval of 5 min during the first 30 min [31].

[17] = tested on: mice; assay: Subcutaneous pentylenetetrazole seizure test (ScPTZ, SCMET); format: in vivo; settings: mice, ip, […]
Method: as §3

[18] = tested on: guinea pigs; assay: Infiltration anesthesia (intradermal wheal test); format: in vivo
Method: A painful reaction to a prick of the skin at the centre of the wheal three times and every 5 s with 5 min intervals during the first 30 min of observation was tested. The experiment was continued to achieve a return of a reaction to the prick. The control wheal was done by an intradermal injection of 0.1 mL of 0.9% NaCl [25]. Local anesthesia was determined by calculating the ratio of the number of positive responses (no flinch) to the number of negative responses (flinch).

[19] = tested on: mice; assay: Tail immersion test (local anesthetic activity); format: in vivo
Method: The tail immersion test in mice. […] The method was performed by subcutaneous (sc) injection of the tested substance dissolved in saline, at a concentration range 0.06–2%, in a constant volume of 0.2 mL about 1 cm from the root of the mouse tail. Fifteen minutes later, the 3-cm distal part of the tail was immersed into temperature-controlled water (50 ± 0.5 °C). The reaction time (latency until the tail is pulled away) was measured by the means of a chronometer. In this assay the cut-off was 20 s [29].

[20] = tested on: murine astrocytes; assay: MTT assay; format: cell-based
Method: Cells were seeded at a density of 1 × 10^4 cells per well in 96 well plates. […] Next, Crystal Dissolving Solution (Cayman) was added to each well.

[21] = tested on: rats; assay: Sciatic nerve ligation (SNL) model, von Frey test; format: in vivo; settings: ip
[22] = tested on: organotypic hippocampal slice cultures; assay: Neuroprotection primary screen, excitotoxin kainic acid; format: cell-based; settings: kainic acid 20 µM; 10 and 100 µM compound
Method: Compound 2 : ADD t{umber, b890s0 Batch: lB- Date Compteted. Ect\,t""201 0 […]
Excilotoxin: llGinic ncia Insult Duration: l+ Hours Solvent: […]
Ai lxn zopr.,r aZ lxa zopr,r Ae lre zoprta
Bz lr<n zopn er ]ra zopr',t l:+aot a r ooprt/|*aa9o8o l oopM lgaeota t oot,tr,t*gB9o8o t oopM […]
The "Primary screen Experiment" is a qualitative assessment of the ability of a compound to prevent excitotoxic cell dearh. organotypic hippocampal slice clltures are treated with N-methyl-D-aipartate lNuoa; o; kainic acid (KA) to induce neuronal cell death. Propidium iodide (Pl), a membrane-impermeant compound, is included in all welts of the culture plate.
Dying cells have compromised cell membranes, thus Pl may diffuse into the cell, intercalate with DNA and ftuoresce. Thus, the intensity of the Pl fluorescence is proportional to the amount of cell death in the individual slices. Hippocampal slice cultures are treated with the excitotoxin alone, or where indicated above, with the excitotoxin and either one eltu/o investigational compounds at the concentrations indicated. lf neuroprotection occurs as a consequence of the added […]
as §1, §2

[23] = tested on: Frings mice; settings: cited from earlier work
[24] = tested on: mice; settings: ip; cited from earlier work
[25] = tested on: mice; settings: at 40 and 80 mg/kg, ip; cited from earlier work

CC[C@@H](CO)NCCOc1c(C)cccc1Cl [Compound 6, S-( +)-2-((2-(2-chloro-6-methylphenoxy)ethyl)amino)butan-1-ol]
Rotarod TD50 [1]: 44.29 (40.72–47.52) mg/kg
Corneal kindling ED50 [2]: 10.50 (3.67–22.09) mg/kg
Pilocarpine-induced status epilepticus prevention: active at [3]: 45 mg/kg
Pilocarpine test: deaths ([3]; at 90 mg/kg): 8 deaths in 9 rats
Rotarod TD50 ([4]; ip): 47.7 (32.6–68.3) mg/kg
TOX TD50 ([4]; ip, 6 Hz report of Aug-2010): 35.8 mg/kg
MES PI [5]: 4.19
MES TPE [5]: 0.5 h
MES ED50 ([5]; 0.5 h (TPE)): 10.58 (6.69–15.38) mg/kg
SCMET ED50 [6]: > 60.0 mg/kg
Hippocampal kindling ED50 ([7]; […]): 15.81 mg/kg
influence on seizure threshold [8]: effect was not shown
Test Result (neuroprotection) [9]: No neuroprotection observed
Area under the curve (I phase) [10]: 135.3 ± 36.4
Area under the curve (II phase) [10]: 387.0 ± 110.1
Area under the curve, % of control (I phase) [10]: 69.3% and 69.3; t14 = 1.5800%
Area under the curve (I phase) ([10]; listed as 354010): 135.2
Area under the curve (II phase) ([10]; listed as 354010): 387.0
Area under the curve, % of control (II phase) ([10]; listed as 354010): 57.2%
6 Hz ED50 ([11]; 32 mA, […], ip): 20.4 (14.9–25.4) mg/kg
% of Total Propidium Iodide Uptake (mean +/- S.E.M) [12]: 33.1%

CC[C@H](CO)NCCOc1c(C)cccc1Cl.Cl [Compound 5a, R-(-)-2-((2-(2-chloro-6-methylphenoxy)ethyl)amino)butan-1-ol hydrochloride]
impact on proliferation (crystal violet) [13]: did not exhibit cytotoxic activity and a notable impact on proliferation
Rotarod TPE [1]: 0.25 h
Rotarod TD50 [1]: 39.6 (36.2–78.3) mg/kg
% of effect (I phase) [14]: 19.4%
% of effect (II phase) [14]: 55.7%
Time of licking paw ± SEM (I phase) [14]: 72.3 ± 8.7 s
Time of licking paw ± SEM (II phase) [14]: 13.5 ± 5.4 s
MES ED50 ([15]; ip): 19.78 (16.16–22.33) mg/kg
MES PI ([15]; po): 5.03
MES TPE ([15]; po): 0.25 h
MES ED50 ([15]; po): 64.12 (52.15–75.37) mg/kg
Inhibition of pain reaction ([16]; 0.125%, 5 min): 46.67* %
Inhibition of pain reaction ([16]; 0.125%, 30 min): 0%
Inhibition of pain reaction ([16]; 0.125%, 60 min): 0%
Inhibition of pain reaction ([16]; 0.125%, 120 min): 0%
Inhibition of pain reaction ([16]; 0.5%, 5 min): 80.55*** %
Inhibition of pain reaction ([16]; 0.5%, 30 min): 0%
Inhibition of pain reaction ([16]; 0.5%, 60 min): 0%
Inhibition of pain reaction ([16]; 0.5%, 120 min): 0%
Inhibition of pain reaction ([16]; […], 5 min): 36.11* %
Inhibition of pain reaction ([16]; […], 30 min): 0%
Inhibition of pain reaction ([16]; […], 60 min): 0%
Inhibition of pain reaction ([16]; […], 120 min): 0%
Corneal kindling seizure score by Racine (0–5) ([2]; at 25 mg/kg): 4.3
SCMET ED50 [17]: > 70.00 mg/kg
Inhibition of pain reaction ([18]; 0.125%, 5 min): 83.33*** %
Inhibition of pain reaction ([18]; 0.125%, 30 min): 44.44** %
Inhibition of pain reaction ([18]; 0.125%, 24 h): 0%
Inhibition of pain reaction ([18]; 0.5%, 5 min): 100*** %
Inhibition of pain reaction ([18]; 0.5%, 30 min): 72.22*** %
Inhibition of pain reaction ([18]; 0.5%, 60 min): 58.82** %
Inhibition of pain reaction ([18]; 0.5%, 120 min): 52.94** %
Inhibition of pain reaction ([18]; 0.5%, 24 h): 0%
Inhibition of pain reaction ([18]; […], 5 min): 100*** %
Inhibition of pain reaction ([18]; […], 60 min): 33.33* %
Inhibition of pain reaction ([18]; […], 240 min): 16.67%
Inhibition of pain reaction ([18]; […], 24 h): 0%
Prolongation of the time reaction ([19]; 0.031%): 40.0%
Reaction time to painful stimulus ([19]; 0.031%): 4.9 ± 0.9 s
Prolongation of the time reaction ([19]; 0.094%): 57.1%
Reaction time to painful stimulus ([19]; 0.094%): 5.5 ± 1.6 s
Prolongation of the time reaction ([19]; 0.125%): 297.1%
Reaction time to painful stimulus ([19]; 0.125%): 13.9 ± 1.8 s
Prolongation of the time reaction ([19]; 0.5%): 434.3%
Reaction time to painful stimulus ([19]; 0.5%): 18.7 ± 1.3 s
Prolongation of the time reaction ([19]; 2.0%): 391.4%
Reaction time to painful stimulus ([19]; 2.0%): 17.2 ± 1.9 s
Prolongation of the time reaction ([19]; […]): 8.6%
Reaction time to painful stimulus ([19]; […]): 3.8 ± 0.5 s
Pilocarpine-induced status epilepticus prevention: result ([3]; at 40 mg/kg): no activity
Rotarod TD50 ([4]; ip): 54.01 (35.70–64.23) mg/kg
Rotarod TPE ([4]; po): 0.25 h
Rotarod TD50 ([4]; po): 322.33 (257.98–382.69) mg/kg
MES PI [5]: 10.15
MES TPE [5]: 0.25 h
MES ED50 ([5]; […]): 3.9 (2.1–6.2) mg/kg
cytotoxic activity (MTT) [20]: did not exhibit cytotoxic activity
SNL TPE ([21]; rat, in vivo): 1 h
SNL: active at ([21]; rats, von Frey test): 4 mg/kg
Hippocampal kindling TPE [7]: 0.25 h
Hippocampal kindling seizure score by Racine (0–5), Rat1 ([7]; at 40 mg/kg): 4
Hippocampal kindling seizure score by Racine (0–5), Rat2 ([7]; at 40 mg/kg): 0
Test Result (neuroprotection) [22]: No neuroprotection observed
Test Result (neuroprotection) [9]: No neuroprotection
Area under the curve, % of control (I phase) [10]: 76.5; t14 = 0.8847%
Area under the curve, % of control (II phase) [10]: 91.5; t14 = 0.5440%
6 Hz ED50 ([11]; 44 mA, TPE 0.5 h, ip): 52.49 (41.85–67.05) mg/kg
6 Hz TPE ([11]; 44 mA, ip): 0.5 h
6 Hz TPE ([11]; 44 mA, po): 0.25 h

NC(=O)N1c2ccccc2C=Cc2ccccc21 [Carbamazepine]
Frings mice sound-induced seizures ED50 [23]: 11.2 (7.73–16.2) mg/kg
MES ED50 [24]: 7.81 (6.32–8.45) mg/kg
6 Hz: Max. protection [25]: 75%
